Like-named read-outs stand apart in the source and are kept apart here.

In test [1] the test system is Secretion of IL10 by OCI-LY3 ABC-DLBCL cells. As to the kind of experiment: Human IL10 Mesoscale assay (OCI-LY3). The following applies: read-out: Human IL10 Mesoscale assay (OCI-LY3). The test is classed as cell-based. The method in brief:
(§1)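 TMD8 or OCI-LY3 ABC-DLBCL cells incubated with compound 24 h at 37° C without beta-mercaptoethanol. Secreted IL6 and IL10 in supernatant quantified by MSD electrochemiluminescence immunoassay; DMSO wells define maximum signal.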

In test [2] the test system is Secretion of IL6 by OCI-LY3 ABC-DLBCL cells. Nature of the test: Human IL6 Mesoscale assay (OCI-LY3). The following applies: read-out: Human IL6 Mesoscale assay (OCI-LY3). The test is classed as cell-based. Summed up:
as §1

Test [3] has as its system OCI-Ly3 ABC-DLBCL cell line. As to the kind of experiment: 4-day proliferation assay OCI-Ly3. Format: cell-based. Particulars: Homo sapiens, read-out: Anti-proliferation: OCI-LY-3 IC50. How it is done:
To assess anti-proliferative effects, MALT1 inhibitor test compounds were tested in 4-day proliferation assays using three different DLBCL cell lines.
Cells should be kept between 0.5-2.5 million cells per mL during culturing and cells should be supplemented every 2-3 days with fresh 50 μM beta-mercaptoenthanol. No beta-mercaptoethanol is used during the proliferation assay. OCI-Ly7 cells were propagated in IMDM (ThermoFisher) supplemented with 10% fetal bovine serum (HyClone), 2 mM L-glutamine (Sigma Aldrich) and 50 μg/mL Gentamycin. Cell passage numbers should not exceed 30.
10,000 TMD8, 10,000 OCI-Ly3 or 2,000 OCI-Ly7 cells were seeded in 100 μL media per well and incubated for 4 days at 37° C. and 5% CO2. Cell plating numbers were chosen based on growth curves to ensure linear cell growth. After 4 days of incubation 50 μl CellTiterGLO reagent (Promega) were added to each well and luminescence was measured on the Envision after 10 min of incubation at room temperature.

The target in test [4] is T1, full-length MALT1 protein (Strep-MALT1(1-824)-His) (Homo sapiens, UniProt Q9UDY8).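 Further: fluorogenic LRSR-AMC substrate cleavage by MALT1, 50 min compound preincubation then 4 h reaction at RT, 11-point dilution from 30 µM, scaled between enzyme-free and untreated enzyme controls.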
T1 sequence (Q9UDY8 1-824): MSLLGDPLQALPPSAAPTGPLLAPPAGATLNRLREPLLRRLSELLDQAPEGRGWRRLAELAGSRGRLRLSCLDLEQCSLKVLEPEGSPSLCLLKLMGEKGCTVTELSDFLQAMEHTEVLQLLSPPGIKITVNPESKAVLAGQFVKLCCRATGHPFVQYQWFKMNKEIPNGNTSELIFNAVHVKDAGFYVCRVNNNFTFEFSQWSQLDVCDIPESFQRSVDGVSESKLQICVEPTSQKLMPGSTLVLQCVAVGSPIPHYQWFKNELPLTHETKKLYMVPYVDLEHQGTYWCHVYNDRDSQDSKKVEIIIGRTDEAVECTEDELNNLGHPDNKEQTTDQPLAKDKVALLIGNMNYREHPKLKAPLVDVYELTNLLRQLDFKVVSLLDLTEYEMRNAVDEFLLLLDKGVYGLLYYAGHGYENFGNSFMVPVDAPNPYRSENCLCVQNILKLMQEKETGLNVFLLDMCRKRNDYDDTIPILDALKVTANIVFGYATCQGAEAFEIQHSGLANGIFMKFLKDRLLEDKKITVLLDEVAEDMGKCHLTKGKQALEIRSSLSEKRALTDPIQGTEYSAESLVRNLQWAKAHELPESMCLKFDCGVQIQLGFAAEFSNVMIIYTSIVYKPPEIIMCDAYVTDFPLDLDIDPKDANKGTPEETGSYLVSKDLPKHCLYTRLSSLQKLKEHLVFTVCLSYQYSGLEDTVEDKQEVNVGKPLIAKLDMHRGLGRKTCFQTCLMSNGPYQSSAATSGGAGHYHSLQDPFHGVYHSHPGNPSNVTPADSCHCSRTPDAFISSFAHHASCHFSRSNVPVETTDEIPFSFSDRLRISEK
As to the kind of experiment: biochemical.

The mark [5] stands for this setting: OCI-LY3 cells, 24 h incubation, supernatant, MSD V-Plex.
Setting [6] is: 96 h, 10,000 OCI-Ly3 cells per well, 4 days, CellTiterGLO.

For `N#Cc1cc(NC(=O)c2cnn(-c3ccc(F)cc3Cl)c2C(F)(F)F)cnc1-n1nccn1` [Cpd 51, 1-(2-chloro-4-fluorophenyl)-N-(5-cyano-6-(2H-1,2,3-triazol-2-yl)pyridin-3-yl)-5-(trifluoromethyl)-1H-pyrazole-4-carboxamide], the IC50 stood at 71 nM in test [1] (setting [5]), 98 nM in test [2] (setting [5]), 851 nM in test [3] (setting [6]) and 54 nM in test [4].

As to `O=C(Nc1cnc(-n2nccn2)c(Cl)c1)c1cnn(-c2ccnc3c2OCO3)c1C(F)(F)F` [Cpd 52, 1-([1,3]dioxolo[4,5-b]pyridin-7-yl)-N-(5-chloro-6-(2H-1,2,3-triazol-2-yl)pyridin-3-yl)-5-(trifluoromethyl)-1H-pyrazole-4-carboxamide], the IC50 in test [1] (setting [5]) came out at 56 nM; in test [2] (setting [5]), 120 nM; in test [3] (setting [6]) it was 2400 nM; in test [4], 55 nM.

Regarding `N#Cc1cc(NC(=O)c2cnn(-c3ccnc(N)c3Cl)c2C(F)(F)F)cnc1-n1nccn1` [Cpd 56, 1-(2-amino-3-chloropyridin-4-yl)-N-(5-cyano-6-(2H-1,2,3-triazol-2-yl)pyridin-3-yl)-5-(trifluoromethyl)-1H-pyrazole-4-carboxamide], the IC50 in test [1] (OCI-Ly3, 24 h) was determined as 363 nM; in test [2] (OCI-Ly3, 24 h), 389 nM; in test [3] (OCI-Ly3, 96 h), 5010 nM; in test [4], 78 nM.

In the case of `Nc1nccc(-n2ncc(C(=O)Nc3cnc(-n4nccn4)c(Cl)c3)c2C(F)(F)F)c1Cl` [Cpd 57, 1-(2-amino-3-chloropyridin-4-yl)-N-(5-chloro-6-(2H-1,2,3-triazol-2-yl)pyridin-3-yl)-5-(trifluoromethyl)-1H-pyrazole-4-carboxamide], the IC50 in test [1] (OCI-Ly3, 24 h) is 117 nM; in test [2] (OCI-Ly3, 24 h), 162 nM; in test [3] (OCI-Ly3, 96 h), 1200 nM; in test [4] it was 107 nM.

On to `O=C(Nc1cnc(-n2nccn2)c(Cl)c1)c1cnn(-c2ccc(F)cc2Br)c1C(F)(F)F` [Cpd 83, 1-(2-bromo-4-fluorophenyl)-N-(5-chloro-6-(2H-1,2,3-triazol-2-yl)pyridin-3-yl)-5-(trifluoromethyl)-1H-pyrazole-4-carboxamide], for which the IC50 in test [3] (setting [6]) turned out to be 2240 nM; in test [4] it was 129 nM.

On to `Cc1cc(F)cnc1-n1ncc(C(=O)Nc2cnc(-n3nccn3)c(Cl)c2)c1C(F)(F)F` [Cpd 112, N-(5-chloro-6-(2H-1,2,3-triazol-2-yl)pyridin-3-yl)-1-(5-fluoro-3-methylpyridin-2-yl)-5-(trifluoromethyl)-1H-pyrazole-4-carboxamide], for which the IC50 came to 724 nM in test [3] (OCI-Ly3, 96 h) and 457 nM in test [4].

In the case of `O=C(Nc1cnc(-n2nccn2)c(Cl)c1)c1cnn(-c2ccc(F)cc2F)c1C(F)(F)F` [Cpd 117, N-(5-chloro-6-(2H-1,2,3-triazol-2-yl)pyridin-3-yl)-1-(2,4-difluorophenyl)-5-(trifluoromethyl)-1H-pyrazole-4-carboxamide], the IC50 came to 407 nM in test [3] (setting [6]) and 288 nM in test [4].

For `N#Cc1cc(NC(=O)c2cnn(-c3cccc4c3CCNC4)c2C(F)(F)F)cnc1-n1nccn1` [Cpd 129, N-(5-cyano-6-(2H-1,2,3-triazol-2-yl)pyridin-3-yl)-1-(1,2,3,4-tetrahydroisoquinolin-5-yl)-5-(trifluoromethyl)-1H-pyrazole-4-carboxamide], the IC50 in test [3] (setting [6]) was found to be 1410 nM; in test [4] it was 2400 nM.

Regarding `CN1CCCc2cccc(-n3ncc(C(=O)Nc4cnc(-n5nccn5)c(C#N)c4)c3C(F)(F)F)c21` [Cpd 131, N-(5-cyano-6-(2H-1,2,3-triazol-2-yl)pyridin-3-yl)-1-(1-methyl-1,2,3,4-tetrahydroquinolin-8-yl)-5-(trifluoromethyl)-1H-pyrazole-4-carboxamide], the IC50 in test [3] (setting [6]) was 19100 nM; in test [4], 776 nM.

On to `O=C1NCc2c1cccc2-n1ncc(C(=O)Nc2cnc(-n3nccn3)c(Cl)c2)c1C(F)(F)F` [Cpd 133, N-(5-chloro-6-(2H-1,2,3-triazol-2-yl)pyridin-3-yl)-1-(1-oxoisoindolin-4-yl)-5-(trifluoromethyl)-1H-pyrazole-4-carboxamide], for which the IC50 in test [3] (setting [6]) turned out to be 5500 nM; in test [4], 155 nM.

These data come from US11040031B2, “Pyrazole derivatives as MALT1 inhibitors” (Janssen Pharmaceutica NV, priority 2018, dated 2021).
